Laboratory results reported in ChEMBL document CHEMBL1158581, “Synthesis and evaluation of new N6-substituted adenosine-5'-N-methylcarboxamides as A3 adenosine receptor agonists” (Bioorg Med Chem, 2010).
Active and inactive are the calls of the source. The rule behind the calls is not given here.

Assays:
[1] = molecular target: Adenosine receptors; A1 & A3 (Homo sapiens) (UniProt P30542+P0DMS8); experiment: Selectivity ratio of Ki for human recombinant adenosine A1 receptor to Ki for human recombinant adenosine A3 receptor
Adenosine receptor A2a [2] = molecular target: T1, Adenosine receptor A2a (Homo sapiens, UniProt P29274); experiment: Displacement of [3H]ZM241385 from human recombinant adenosine A2A receptor by rapid filtration technique
[3] = Selectivity ratio of Ki for adenosine A1 receptor to Ki for adenosine A3 receptor
Adenosine receptor A3 [4] = molecular target: T2, Adenosine receptor A3 (Homo sapiens, UniProt P0DMS8); experiment: Binding affinity to adenosine A3 receptor
T2 sequence (P0DMS8 whole entry): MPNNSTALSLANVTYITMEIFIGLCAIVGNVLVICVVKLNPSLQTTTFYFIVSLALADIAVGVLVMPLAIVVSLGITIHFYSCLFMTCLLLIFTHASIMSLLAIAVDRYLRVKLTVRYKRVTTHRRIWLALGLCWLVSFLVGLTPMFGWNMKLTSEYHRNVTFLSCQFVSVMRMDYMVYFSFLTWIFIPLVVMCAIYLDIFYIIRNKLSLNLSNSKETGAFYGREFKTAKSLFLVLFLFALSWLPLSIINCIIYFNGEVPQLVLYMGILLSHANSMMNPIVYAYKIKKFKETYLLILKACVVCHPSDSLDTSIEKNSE

Adenosine receptor A1 = molecular target: T3, Adenosine receptor A1 (Homo sapiens, UniProt P30542); experiment: Displacement of [125I]ABA from human recombinant adenosine A1 receptor by rapid filtration technique
T3 sequence (P30542 whole entry): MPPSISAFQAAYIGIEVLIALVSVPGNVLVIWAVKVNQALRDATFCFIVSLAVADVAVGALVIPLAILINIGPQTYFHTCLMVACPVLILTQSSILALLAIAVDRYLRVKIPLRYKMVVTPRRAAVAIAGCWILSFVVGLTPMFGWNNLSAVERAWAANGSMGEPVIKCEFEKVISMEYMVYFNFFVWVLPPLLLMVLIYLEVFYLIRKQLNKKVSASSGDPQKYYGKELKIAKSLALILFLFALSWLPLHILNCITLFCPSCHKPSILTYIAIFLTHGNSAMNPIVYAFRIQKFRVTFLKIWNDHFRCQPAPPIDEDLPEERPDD

Adenosine receptor A3 [5] = molecular target: T2, Adenosine receptor A3; experiment: Displacement of [125I]ABA from human recombinant adenosine A3 receptor by rapid filtration technique
H9c2 [6] = experiment: Cardioprotective effect against hypoxic simulated ischemia in rat H9c2 cells assessed as reduction in cell death at 100 nM after 12 hrs by propidium iodide staining-based inverted microscopy in presence of adenosine A3 receptor antagonist MRS-1191; assay type: functional
H9c2 [7] = experiment: Cardioprotective effect against hypoxic simulated ischemia in rat H9c2 cells assessed as reduction in cell death at 10 nM after 12 hrs by propidium iodide staining-based inverted microscopy; assay type: functional
H9c2 [8] = experiment: Cardioprotective effect against hypoxic simulated ischemia in rat H9c2 cells assessed as reduction in cell death at 100 nM after 12 hrs by propidium iodide staining-based inverted microscopy; assay type: functional; conditions: for inhibition at 0.1 µM: H9c2, 12 h
Adenosine receptor A2a [9] = molecular target: T1, Adenosine receptor A2a; experiment: Displacement of [3H]ZM241385 from human recombinant adenosine A2A receptor at 10 uM by rapid filtration technique

T1 sequence (P29274 whole entry): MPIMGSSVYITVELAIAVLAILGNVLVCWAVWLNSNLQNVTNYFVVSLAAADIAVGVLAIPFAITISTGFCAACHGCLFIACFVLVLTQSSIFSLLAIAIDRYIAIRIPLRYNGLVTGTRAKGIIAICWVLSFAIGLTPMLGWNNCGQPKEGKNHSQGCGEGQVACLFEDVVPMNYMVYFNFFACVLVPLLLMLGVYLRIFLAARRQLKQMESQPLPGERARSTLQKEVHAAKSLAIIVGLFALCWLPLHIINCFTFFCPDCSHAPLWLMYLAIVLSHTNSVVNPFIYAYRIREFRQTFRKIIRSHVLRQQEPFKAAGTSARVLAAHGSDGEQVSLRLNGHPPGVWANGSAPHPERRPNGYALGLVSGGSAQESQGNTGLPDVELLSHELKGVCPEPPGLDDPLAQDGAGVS

| Structure (SMILES) | Ratio Ki [1] | Ki (Adenosine receptor A2a [2]) [µM] | Ki (Adenosine receptor A1) [nM] | Ki (Adenosine receptor A3 [5]) [nM] | inhibition (Adenosine receptor A2a [9]) [%] | Ratio Ki [3] | Ki (Adenosine receptor A3 [4]) [nM] | inhibition (H9c2 [6]) | inhibition (H9c2 [7]) | inhibition (H9c2 [8]) | inhibition at 0.1 µM (H9c2 [8]) [%] |
| --- | --- | --- | --- | --- | --- | --- | --- | --- | --- | --- | --- |
| CC1(C)CC(CNc2ncnc3c2ncn3[C@@H]2O[C@H](CO)[C@@H](O)[C@H]2O)C(C)(C)N1[O] (stereo partly drawn) | 0.0024 | > 10 |  |  |  | 400 | 50 |  |  |  |  |
| CNC(=O)[C@H]1O[C@@H](n2cnc3c(NCc4ccc5c(c4)C(C)(C)N([O])C5(C)C)ncnc32)[C@H](O)[C@@H]1O | 4 | > 10 | 1290 | 320 |  |  |  |  |  |  |  |
| CC1(C)c2ccc(NC3NC=Nc4c3ncn4[C@@H]3O[C@H](CO)[C@@H](O)[C@H]3O)cc2C(C)(C)N1[O] (stereo partly drawn) |  | > 10 |  |  |  |  |  |  |  |  |  |
| CNC(=O)[C@H]1O[C@@H](n2cnc3c(NCc4cccc(I)c4)ncnc32)[C@H](O)[C@@H]1O [IB-MECA] |  |  |  |  |  |  |  | inactive | inactive | Active | 54.1 |
| CNC(=O)[C@H]1O[C@@H](n2cnc3c(NC4CC(C)(C)N([O])C(C)(C)C4)ncnc32)[C@H](O)[C@@H]1O | 0.45 | > 10 | 1890 | 4160 |  |  |  |  |  |  |  |
| CNC(=O)[C@H]1O[C@@H](n2cnc3c(Nc4ccc5c(c4)C(C)(C)N([O])C5(C)C)ncnc32)[C@H](O)[C@@H]1O | 1.5 | > 10 | 800 | 530 |  |  |  |  |  |  |  |
| CC1(C)c2ccc(C(=O)NCCc3ccc(Nc4ncnc5c4ncn5[C@@H]4O[C@H](CO)[C@@H](O)[C@H]4O)cc3)cc2C(C)(C)N1[O] |  |  |  |  |  | 3 | 7 |  |  |  |  |
| CNC(=O)[C@H]1O[C@@H](n2cnc3c(Nc4ccc(CCNC(=O)c5cc(C(C)(C)C)c(O)c(C(C)(C)C)c5)cc4)ncnc32)[C@H](O)[C@@H]1O | 5.4 | > 10 | 243 | 45 |  |  |  |  |  |  |  |
| CNC(=O)[C@H]1O[C@@H](n2cnc3c(Nc4ccc(CCNC(=O)c5ccc6c(c5)C(C)(C)N([O])C6(C)C)cc4)ncnc32)[C@H](O)[C@@H]1O | 2.1 | > 10 | 53.1 | 25 |  |  |  |  |  |  |  |
| CC1(C)CC(NC2NC=Nc3c2ncn3[C@@H]2O[C@H](CO)[C@@H](O)[C@H]2O)CC(C)(C)N1[O] (stereo partly drawn) | 0.0058 | > 10 | 50 | 8560 |  |  |  |  |  |  |  |
| CNC(=O)[C@H]1O[C@@H](n2cnc3c(NCC4CC(C)(C)N([O])C4(C)C)ncnc32)[C@H](O)[C@@H]1O (stereo partly drawn) | 0.56 | > 10 | 570 | 1020 |  |  |  |  |  |  |  |
| CC1(C)c2ccc(CNC3NC=Nc4c3ncn4[C@@H]3O[C@H](CO)[C@@H](O)[C@H]3O)cc2C(C)(C)N1[O] (stereo partly drawn) | 4.1 | > 10 | 1140 | 280 |  |  |  |  |  |  |  |
| CC1(C)CC(NC2NC=Nc3c2ncn3[C@@H]2O[C@H](CO)[C@@H](O)[C@H]2O)CC(C)(C)N1 (stereo partly drawn) | 0.063 |  |  |  |  |  |  |  |  |  |  |

Now from value to molecule, other results behind:

| Ratio Ki [1] | Ki (Adenosine receptor A2a [2]) [µM] | Ki (Adenosine receptor A1) [nM] | Ki (Adenosine receptor A3 [5]) [nM] | inhibition (Adenosine receptor A2a [9]) [%] | Structure (SMILES) | Ratio Ki [3] | Ki (Adenosine receptor A3 [4]) [nM] | inhibition (H9c2 [6]) | inhibition (H9c2 [7]) | inhibition (H9c2 [8]) | inhibition at 0.1 µM (H9c2 [8]) [%] |
| --- | --- | --- | --- | --- | --- | --- | --- | --- | --- | --- | --- |
| 109 | > 10 | 245 | 2.25 |  | CNC(=O)[C@H]1O[C@@H](n2cnc3c(Nc4ccc(CCNC(=O)c5cc(C(C)(C)C)cc(C(C)(C)C)c5)cc4)ncnc32)[C@H](O)[C@@H]1O |  |  | inactive | inactive | Active |  |
| 15 | > 10 | 76.8 | 5.04 |  | CNC(=O)[C@H]1O[C@@H](n2cnc3c(NCc4ccc(CNC(=O)c5cc(OC)c(OC)c(OC)c5)cc4)ncnc32)[C@H](O)[C@@H]1O |  |  | inactive | inactive | Active |  |
| 0.39 | > 10 | 960 | 2480 |  | CNC(=O)[C@H]1O[C@@H](n2cnc3c(NC4CC(C)(C)NC(C)(C)C4)ncnc32)[C@H](O)[C@@H]1O |  |  |  |  |  |  |
| 1 | > 10 | 290 | 280 |  | CC1(C)NC(C)(C)c2cc(Nc3ncnc4c3ncn4[C@@H]3O[C@H](CO)[C@@H](O)[C@H]3O)ccc21 |  |  |  |  |  |  |
| 5 |  | 150 | 30 | 20 | CC(C)(C)c1cc(CCNc2ncnc3c2ncn3[C@@H]2O[C@H](CO)[C@@H](O)[C@H]2O)cc(C(C)(C)C)c1O |  |  |  |  |  |  |
| 16 | > 10 | 1170 | 70 |  | CNC(=O)[C@H]1O[C@@H](n2cnc3c(Nc4ccc5c(c4)C(C)(C)NC5(C)C)ncnc32)[C@H](O)[C@@H]1O |  |  |  |  |  |  |
| 6.2 |  | 26.2 | 4.26 | 27 | CNC(=O)[C@H]1O[C@@H](n2cnc3c(Nc4ccc(CCNC(=O)c5cc(OC)c(OC)c(OC)c5)cc4)ncnc32)[C@H](O)[C@@H]1O |  |  | inactive | inactive | Active |  |
| 19 | > 10 | 105 | 5.63 |  | CNC(=O)[C@H]1O[C@@H](n2cnc3c(NCc4ccc(CNC(=O)c5cc(C(C)(C)C)c(O)c(C(C)(C)C)c5)cc4)ncnc32)[C@H](O)[C@@H]1O |  |  | inactive | inactive | Active |  |
| 19 | > 10 | 42.1 | 2.22 |  | CNC(=O)[C@H]1O[C@@H](n2cnc3c(NCc4ccc(NC(=O)CCC(=O)NCCc5cc(C(C)(C)C)c(O)c(C(C)(C)C)c5)cc4)ncnc32)[C@H](O)[C@@H]1O |  |  |  |  |  |  |
| 69 | > 10 | 620 | 9 |  | CNC(=O)[C@H]1O[C@@H](n2cnc3c(NCCc4cc(C(C)(C)C)c(O)c(C(C)(C)C)c4)ncnc32)[C@H](O)[C@@H]1O |  |  |  |  |  |  |
| 14 | > 10 | 128 | 9.02 |  | CNC(=O)[C@H]1O[C@@H](n2cnc3c(NCc4ccc(CNC(=O)c5cc(C(C)(C)C)cc(C(C)(C)C)c5)cc4)ncnc32)[C@H](O)[C@@H]1O |  |  | inactive | inactive |  | 68.3 |
